Results: patent US7718700B2, “Growth factor-binding compounds and methods of use” (Yale University, priority 2004, dated 2010)
Where “and” joins values, the source holds several entries; their conditions need not be identical. Equal entries are not always repeated. Where two headings read alike, the source gives them in different places.

Columns and labels:
[1] = system: PDGFR; assay: PDGF-stimulated PDGFR tyrosine phosphorylation in NIH 3T3 cells; format: cell-based, mouse
Experimental: (§1) Inhibition of growth factor-dependent receptor tyrosine phosphorylation by GFBs. Starved Flk-1/KDR-overexpressing NIH 3T3 cells (Flk-1/NIH 3T3) or NIH 3T3 cells were pretreated with GFBs for 5 min before stimulation with VEGF (50 ng/ml) or PDGF-BB (10 ng/ml) for 10 min, respectively. The cells were then harvested and lysed, and proteins from the lysates were separated by SDS-PAGE and transferred to nitrocellulose. Membranes then were either immunoblotted with anti-phospho-VEGFR2 antibody (Cell Signaling Technologies, Beverly, Mass.) for activated Flk-1 or anti-phospho-tyrosine antibody (4G10, Upstate Biotechnology, Lake Placid, N.Y.) for activated PDGFR. Phosphotyrosine Flk-1 and PDGFR were quantified using a Bio-Rad Model GS-700 Imaging Densitometer (Bio-Rad Laboratories, Inc, Hercules, Calif.) (Blaskovich, M. A. et al. Nat Biotechnol, 2000, 18:1065-70).

[2] = system: VEGFR (Flk-1/KDR); assay: VEGF-stimulated Flk-1 tyrosine phosphorylation in Flk-1/NIH 3T3 cells; format: cell-based, human
Experimental: as §1

[3] = system: pancreatic tumors; settings: Bergers et al. 2003; cited from earlier work
[4] = system: metastatic colorectal cancer; settings: patients with metastatic colorectal cancer; cited from earlier work
[5] = PDGF-BB 10 ng/ml stimulated receptor tyrosine phosphorylation, NIH 3T3 cells; read-out: IC50 (μM) PDGFR
[6] = VEGF 50 ng/ml stimulated Flk-1 tyrosine phosphorylation, read-out: IC50 (μM) VEGFR
[7] = read-out: IC50 (μM) PDGFR; PDGF-BB 10 ng/ml stimulated receptor tyrosine phosphorylation, NIH 3T3 cells
[8] = read-out: IC50 (μM) VEGFR, VEGF 50 ng/ml stimulated Flk-1 tyrosine phosphorylation

Molecule | IC50 [1, 5] | IC50 [2, 6] | also measured
CCCCOc1c2cc(C(=O)Nc3cc(C(=O)O)cc(C(=O)O)c3)cc1Cc1cc(C(=O)Nc3cc(C(=O)O)cc(C(=O)O)c3)cc(c1OCCCC)Cc1cc(C(=O)Nc3cc(C(=O)O)cc(C(=O)O)c3)cc(c1OCCCC)Cc1cc(C(=O)Nc3cc(C(=O)O)cc(C(=O)O)c3)cc(c1OCCCC)C2 [GFB201] | 2.62 ± 0.5 µM | 4.96 ± 0.34 µM | –
CCCCOc1c2cc(C(=O)Nc3cc(C(=O)NC(CC(=O)O)C(=O)O)cc(C(=O)NC(CC(=O)O)C(=O)O)c3)cc1Cc1cc(C(=O)Nc3cc(C(=O)NC(CC(=O)O)C(=O)O)cc(C(=O)NC(CC(=O)O)C(=O)O)c3)cc(c1OCCCC)Cc1cc(C(=O)Nc3cc(C(=O)NC(CC(=O)O)C(=O)O)cc(C(=O)NC(CC(=O)O)C(=O)O)c3)cc(c1OCCCC)Cc1cc(C(=O)Nc3cc(C(=O)NC(CC(=O)O)C(=O)O)cc(C(=O)NC(CC(=O)O)C(=O)O)c3)cc(c1OCCCC)C2 (stereo not shown) [GFB202] | – | – | IC50 [1, 7]: 1.39 ± 0.38 µM; IC50 [2, 8]: 11.3 ± 2.9 µM
CCCCOc1c2cc(C(=O)Nc3cc(C(=O)NCCC(=O)O)cc(C(=O)NCCC(=O)O)c3)cc1Cc1cc(C(=O)Nc3cc(C(=O)NCCC(=O)O)cc(C(=O)NCCC(=O)O)c3)cc(c1OCCCC)Cc1cc(C(=O)Nc3cc(C(=O)NCCC(=O)O)cc(C(=O)NCCC(=O)O)c3)cc(c1OCCCC)Cc1cc(C(=O)Nc3cc(C(=O)NCCC(=O)O)cc(C(=O)NCCC(=O)O)c3)cc(c1OCCCC)C2 [GFB203] | – | 19.8 ± 2.9 µM | –
CCCCOc1c2cc(C(=O)Nc3cc(C(=O)NC(CC(=O)O)C(=O)O)cc(C(=O)NC(Cc4ccc(O)cc4)C(=O)O)c3)cc1Cc1cc(C(=O)Nc3cc(C(=O)NC(CC(=O)O)C(=O)O)cc(C(=O)NC(Cc4ccc(O)cc4)C(=O)O)c3)cc(c1OCCCC)Cc1cc(C(=O)Nc3cc(C(=O)NC(CC(=O)O)C(=O)O)cc(C(=O)NC(Cc4ccc(O)cc4)C(=O)O)c3)cc(c1OCCCC)Cc1cc(C(=O)Nc3cc(C(=O)NC(CC(=O)O)C(=O)O)cc(C(=O)NC(Cc4ccc(O)cc4)C(=O)O)c3)cc(c1OCCCC)C2 (stereo not shown) [GFB205] | – | – | IC50 [2, 8]: 5.86 ± 0.68 µM
CCCCOc1c2cc(C(=O)Nc3cc(C(=O)NCCC(=O)O)cc(C(=O)N[C@@H](Cc4ccc(O)cc4)C(=O)O)c3)cc1Cc1cc(C(=O)Nc3cc(C(=O)NCCC(=O)O)cc(C(=O)N[C@@H](Cc4ccc(O)cc4)C(=O)O)c3)cc(c1OCCCC)Cc1cc(C(=O)Nc3cc(C(=O)NCCC(=O)O)cc(C(=O)N[C@@H](Cc4ccc(O)cc4)C(=O)O)c3)cc(c1OCCCC)Cc1cc(C(=O)Nc3cc(C(=O)NCCC(=O)O)cc(C(=O)N[C@@H](Cc4ccc(O)cc4)C(=O)O)c3)cc(c1OCCCC)C2 [GFB207] | – | 18.4 ± 2.72 µM | –
CCCCOc1c2cc(C(=O)Nc3cc(C(=O)NCCC(=O)O)cc(C(=O)N[C@@H](Cc4ccc(OCC(=O)O)cc4)C(=O)O)c3)cc1Cc1cc(C(=O)Nc3cc(C(=O)NCCC(=O)O)cc(C(=O)N[C@@H](Cc4ccc(OCC(=O)O)cc4)C(=O)O)c3)cc(c1OCCCC)Cc1cc(C(=O)Nc3cc(C(=O)NCCC(=O)O)cc(C(=O)N[C@@H](Cc4ccc(OCC(=O)O)cc4)C(=O)O)c3)cc(c1OCCCC)Cc1cc(C(=O)Nc3cc(C(=O)NCCC(=O)O)cc(C(=O)N[C@@H](Cc4ccc(OCC(=O)O)cc4)C(=O)O)c3)cc(c1OCCCC)C2 [GFB208] | 0.84 ± 0.06 µM | – | –
CCCCOc1c2cc(C(=O)Nc3cc(C(=O)O)cc(C(=O)OC)c3)cc1Cc1cc(C(=O)Nc3cc(C(=O)O)cc(C(=O)OC)c3)cc(c1OCCCC)Cc1cc(C(=O)Nc3cc(C(=O)O)cc(C(=O)OC)c3)cc(c1OCCCC)Cc1cc(C(=O)Nc3cc(C(=O)O)cc(C(=O)OC)c3)cc(c1OCCCC)C2 [GFB209] | 2.9 µM and 2.91 µM | 5.58 ± 4.11 µM | –
CCCCOc1c2cc(C(=O)Nc3cc(C(=O)O)cc(C(=O)OC(C)(C)C)c3)cc1Cc1cc(C(=O)Nc3cc(C(=O)O)cc(C(=O)OC(C)(C)C)c3)cc(c1OCCCC)Cc1cc(C(=O)Nc3cc(C(=O)O)cc(C(=O)OC(C)(C)C)c3)cc(c1OCCCC)Cc1cc(C(=O)Nc3cc(C(=O)O)cc(C(=O)OC(C)(C)C)c3)cc(c1OCCCC)C2 [GFB210] | – | – | IC50 [1, 7]: 0.35 ± 0.31 µM; IC50 [2, 8]: 4.54 ± 0.55 µM
CCCCOc1c2cc(C(=O)Nc3cc(C(=O)O)cc(C(=O)NCc4ccccc4)c3)cc1Cc1cc(C(=O)Nc3cc(C(=O)O)cc(C(=O)NCc4ccccc4)c3)cc(c1OCCCC)Cc1cc(C(=O)Nc3cc(C(=O)O)cc(C(=O)NCc4ccccc4)c3)cc(c1OCCCC)Cc1cc(C(=O)Nc3cc(C(=O)O)cc(C(=O)NCc4ccccc4)c3)cc(c1OCCCC)C2 [GFB211] | – | – | IC50 [1, 7]: 1.34 ± 0.32 µM; IC50 [2, 8]: 13 ± 0.49 µM
CCCCOc1c2cc(C(=O)Nc3cc(C(=O)O)cc(C(=O)NC4CCCCC4)c3)cc1Cc1cc(C(=O)Nc3cc(C(=O)O)cc(C(=O)NC4CCCCC4)c3)cc(c1OCCCC)Cc1cc(C(=O)Nc3cc(C(=O)O)cc(C(=O)NC4CCCCC4)c3)cc(c1OCCCC)Cc1cc(C(=O)Nc3cc(C(=O)O)cc(C(=O)NC4CCCCC4)c3)cc(c1OCCCC)C2 [GFB212] | 0.29 ± 0.08 µM | > 10 µM | –
CCCCOc1c2cc(C(=O)Nc3cc(C(=O)O)cc(C(=O)NC(C)(C)C)c3)cc1Cc1cc(C(=O)Nc3cc(C(=O)O)cc(C(=O)NC(C)(C)C)c3)cc(c1OCCCC)Cc1cc(C(=O)Nc3cc(C(=O)O)cc(C(=O)NC(C)(C)C)c3)cc(c1OCCCC)Cc1cc(C(=O)Nc3cc(C(=O)O)cc(C(=O)NC(C)(C)C)c3)cc(c1OCCCC)C2 [GFB213] | 0.57 ± 0.06 µM | 0.85 ± 0.44 µM | –
CCCCOc1c2cc(C(=O)Nc3cc(C(=O)O)cc(C(=O)NC(C)C)c3)cc1Cc1cc(C(=O)Nc3cc(C(=O)O)cc(C(=O)NC(C)C)c3)cc(c1OCCCC)Cc1cc(C(=O)Nc3cc(C(=O)O)cc(C(=O)NC(C)C)c3)cc(c1OCCCC)Cc1cc(C(=O)Nc3cc(C(=O)O)cc(C(=O)NC(C)C)c3)cc(c1OCCCC)C2 [GFB214] | 0.17 ± 0.02 µM | > 10 µM | –
CCCCOc1c2cc(C(=O)Nc3cc(C(=O)O)cc(C(=O)NCCC)c3)cc1Cc1cc(C(=O)Nc3cc(C(=O)O)cc(C(=O)NCCC)c3)cc(c1OCCCC)Cc1cc(C(=O)Nc3cc(C(=O)O)cc(C(=O)NCCC)c3)cc(c1OCCCC)Cc1cc(C(=O)Nc3cc(C(=O)O)cc(C(=O)NCCC)c3)cc(c1OCCCC)C2 [GFB215] | 0.21 ± 0.13 µM | > 10 µM | –
C=CCNC(=O)c1cc(NC(=O)c2cc3c(OCCCC)c(c2)Cc2cc(C(=O)Nc4cc(C(=O)O)cc(C(=O)NCC=C)c4)cc(c2OCCCC)Cc2cc(C(=O)Nc4cc(C(=O)O)cc(C(=O)NCC=C)c4)cc(c2OCCCC)Cc2cc(C(=O)Nc4cc(C(=O)O)cc(C(=O)NCC=C)c4)cc(c2OCCCC)C3)cc(C(=O)O)c1 [GFB216] | 0.15 ± 0.01 µM | > 10 µM | –
CCCCOc1c2cc(C(=O)Nc3cc(C(=O)OCc4ccccc4)cc(C(=O)OC(C)(C)C)c3)cc1Cc1cc(C(=O)Nc3cc(C(=O)OCc4ccccc4)cc(C(=O)OC(C)(C)C)c3)cc(c1OCCCC)Cc1cc(C(=O)Nc3cc(C(=O)OCc4ccccc4)cc(C(=O)OC(C)(C)C)c3)cc(c1OCCCC)Cc1cc(C(=O)Nc3cc(C(=O)OCc4ccccc4)cc(C(=O)OC(C)(C)C)c3)cc(c1OCCCC)C2 [GFB217] | – | – | inhibition of PDGF signaling, in words [1]: did not have a significant activity; IC50 [1, 7]: > 10 µM; IC50 [2, 8]: > 10 µM
CCCCOc1c2cc(C(=O)Nc3cc(C(=O)O)cc(C(=O)Nc4ccncc4)c3)cc1Cc1cc(C(=O)Nc3cc(C(=O)O)cc(C(=O)Nc4ccncc4)c3)cc(c1OCCCC)Cc1cc(C(=O)Nc3cc(C(=O)O)cc(C(=O)Nc4ccncc4)c3)cc(c1OCCCC)Cc1cc(C(=O)Nc3cc(C(=O)O)cc(C(=O)Nc4ccncc4)c3)cc(c1OCCCC)C2 [GFB218] | 0.54 ± 0.15 µM | > 10 µM | –
CCCCOc1c2cc(C(=O)Nc3cc(C(=O)O)cc(C(=O)Nc4cccc5ccccc45)c3)cc1Cc1cc(C(=O)Nc3cc(C(=O)O)cc(C(=O)Nc4cccc5ccccc45)c3)cc(c1OCCCC)Cc1cc(C(=O)Nc3cc(C(=O)O)cc(C(=O)Nc4cccc5ccccc45)c3)cc(c1OCCCC)Cc1cc(C(=O)Nc3cc(C(=O)O)cc(C(=O)Nc4cccc5ccccc45)c3)cc(c1OCCCC)C2 [GFB219] | 0.53 ± 0.15 µM | > 10 µM | –
Cc1cc(C)c(/C=C2\C(=O)Nc3ccccc32)[nH]1 [SU5416] | – | – | effect on pancreatic tumors [3]: suppresses early, but not late, development of pancreatic tumors
Cc1[nH]c(/C=C2\C(=O)Nc3ccccc32)c(C)c1CCC(=O)O [SU6668] | – | – | effect on pancreatic tumors [3]: induced regression of advanced pancreatic tumor at late stage of development
AVASTIN: humanized anti-VEGF monoclonal antibody | – | – | increase of median survival [4]: 5 months
